Legend:
[1] = system: Alopecurus myosuroides (ALOMY); experiment: Pre-emergence biological efficacy (Example 13); assay type: in vivo; conditions: Alopecurus myosuroides, 312 h; pre-emergence, 1,000 g/ha, after 13 days; read-out: Percentage damage ALOMY
Method in brief: (§1)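 Pots sown and sprayed one day later, pre-emergence, at 250 or 1000 g/ha in acetone/water with 0.5% Tween 20. Plants kept in glasshouse at 24/16 °C day/night, 14 h light, 65% humidity. Damage scored visually after 13 days on a 0–100 scale (100 = total damage).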

[2] = system: Echinochloa crus-galli (ECHCG); experiment: Pre-emergence biological efficacy (Example 13); assay type: in vivo; conditions: Echinochloa crus-galli, 312 h; pre-emergence, 1,000 g/ha, after 13 days; read-out: Percentage damage ECHCG
Method in brief: as §1

[3] = system: Ipomea hederaceae (IPOHE); experiment: Pre-emergence biological efficacy (Example 13); assay type: in vivo; conditions: Ipomoea hederacea, 312 h; pre-emergence, 1,000 g/ha, after 13 days; read-out: Percentage damage IPOHE
Method in brief: as §1

[4] = system: Amaranthus retroflexus (AMARE); experiment: Pre-emergence biological efficacy (Example 13); assay type: in vivo; conditions: Amaranthus retroflexus, 312 h; pre-emergence, 1,000 g/ha, after 13 days; read-out: Percentage damage AMARE
Method in brief: as §1

Setaria faberi (SETFA) [5] = experiment: Pre-emergence biological efficacy (Example 13); assay type: in vivo; conditions: Setaria faberi, 312 h; pre-emergence, 1,000 g/ha, after 13 days; read-out: Percentage damage SETFA
Method in brief: as §1

Solanum nigrum (SOLNI) [6] = experiment: Pre-emergence biological efficacy (Example 13); assay type: in vivo; conditions: Solanum nigrum, 312 h; pre-emergence, 1,000 g/ha, after 13 days; read-out: Percentage damage SOLNI
Method in brief: as §1

SINAR Sinapis arvensis = experiment: Post-emergence crop and weed test (Example 15); assay type: in vivo; conditions: Mutarda arvensis, 360 h, after 15 days, read-out: Percentage damage SINAR
Method in brief: (§2)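 Scoring: percent damage at 15 days after treatment, where 100 means total damage and 0 no damage. Treatment was a foliar spray of 14-day-old potted plants, using active ingredient diluted from a 5% acetone-based emulsifiable stock into water containing 0.2% X-77 adjuvant.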

[7] = system: POLCO Polygonum convolvulus; experiment: Post-emergence crop and weed test (Example 15); assay type: in vivo; conditions: Fallopia convolvulus, 360 h, after 15 days, read-out: Percentage damage POLCO
Method in brief: as §2

SIDSP Sida spinosa = experiment: Post-emergence crop and weed test (Example 15); assay type: in vivo; conditions: 360 h, after 15 days, read-out: Percentage damage SIDSP
Method in brief: as §2

IPOHE Ipomoea hederacea = experiment: Post-emergence crop and weed test (Example 15); assay type: in vivo; conditions: 360 h, after 15 days, read-out: Percentage damage IPOHE
Method in brief: as §2

[8] = system: ABUTH Abutilon theophrasti; experiment: Post-emergence crop and weed test (Example 15); assay type: in vivo; conditions: 360 h, after 15 days, read-out: Percentage damage ABUTH
Method in brief: as §2

CHEAL Chenopodium album = experiment: Post-emergence crop and weed test (Example 15); assay type: in vivo; conditions: 360 h, after 15 days, read-out: Percentage damage CHEAL
Method in brief: as §2

[9] = system: AMARE Amaranthus retroflexus; experiment: Post-emergence crop and weed test (Example 15); assay type: in vivo; conditions: 360 h, after 15 days, read-out: Percentage damage AMARE
Method in brief: as §2

[10] = system: XANST Xanthium strumarium; experiment: Post-emergence crop and weed test (Example 15); assay type: in vivo; conditions: 360 h, after 15 days, read-out: Percentage damage XANST
Method in brief: as §2

GALAP Galium aparine = experiment: Post-emergence crop and weed test (Example 15); assay type: in vivo; conditions: 360 h, after 15 days, read-out: Percentage damage GALAP
Method in brief: as §2

VERPE Veronica persica = experiment: Post-emergence crop and weed test (Example 15); assay type: in vivo; conditions: 360 h, after 15 days, read-out: Percentage damage VERPE
Method in brief: as §2

KCHSC Kochia scoparia = experiment: Post-emergence crop and weed test (Example 15); assay type: in vivo; conditions: Bassia scoparia, 360 h, after 15 days, read-out: Percentage damage KCHSC
Method in brief: as §2

[11] = system: EPHHL Euphorbia heterophylla; experiment: Post-emergence crop and weed test (Example 15); assay type: in vivo; conditions: 360 h, after 15 days, read-out: Percentage damage EPHHL
Method in brief: as §2

GLXMA Soybean = experiment: Post-emergence crop and weed test (Example 15); assay type: in vivo; conditions: Glycine max, 360 h, after 15 days, read-out: Percentage damage GLXMA
Method in brief: as §2

[12] = system: Alopecurus myosuroides (ALOMY); experiment: Post-emergence biological efficacy (Example 14); assay type: in vivo; conditions: Alopecurus myosuroides, 312 h; post-emergence, 1,000 g/ha, after 13 days; read-out: Percentage damage ALOMY
Method in brief: (§3)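 Pots were sprayed 8 days after sowing at 250 or 1000 g/ha, applied from acetone/water (50:50) with 0.5% Tween 20. Plants were grown in a glasshouse at 24/16° C. day/night, 14 h light and 65% humidity. Damage was scored 13 days later on a 0–100 scale, where 100 is total damage.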

[13] = system: Echinochloa crus-galli (ECHCG); experiment: Post-emergence biological efficacy (Example 14); assay type: in vivo; conditions: Echinochloa crus-galli, 312 h; post-emergence, 1,000 g/ha, after 13 days; read-out: Percentage damage ECHCG
Method in brief: as §3

[14] = system: Ipomea hederaceae (IPOHE); experiment: Post-emergence biological efficacy (Example 14); assay type: in vivo; conditions: Ipomoea hederacea, 312 h; post-emergence, 1,000 g/ha, after 13 days; read-out: Percentage damage IPOHE
Method in brief: as §3

[15] = system: Amaranthus retroflexus (AMARE); experiment: Post-emergence biological efficacy (Example 14); assay type: in vivo; conditions: Amaranthus retroflexus, 312 h; post-emergence, 1,000 g/ha, after 13 days; read-out: Percentage damage AMARE
Method in brief: as §3

Setaria faberi (SETFA) [16] = experiment: Post-emergence biological efficacy (Example 14); assay type: in vivo; conditions: Setaria faberi, 312 h; post-emergence, 1,000 g/ha, after 13 days; read-out: Percentage damage SETFA
Method in brief: as §3

Solanum nigrum (SOLNI) [17] = experiment: Post-emergence biological efficacy (Example 14); assay type: in vivo; conditions: Solanum nigrum, 312 h; post-emergence, 1,000 g/ha, after 13 days; read-out: Percentage damage SOLNI
Method in brief: as §3

Compound: C=Cc1c(NCc2ccco2)nc(-c2ccc(Cl)c(OC)c2F)nc1C(=O)OC [Compound 6, 2-(4-chloro-2-fluoro-3-methoxyphenyl)-5-ethenyl-4-(furan-2-ylmethylamino)-6-methoxycarbonylpyrimidine]
- melting point: 100 to 102 °C
- pest or weed control at 1000 g/ha [1]: 70%
- pest or weed control at 1000 g/ha [2]: 80%
- pest or weed control at 1000 g/ha [3]: 90%
- pest or weed control at 1000 g/ha [4]: 100%
- pest or weed control at 1000 g/ha (Setaria faberi (SETFA) [5]): 80%
- pest or weed control at 1000 g/ha (Solanum nigrum (SOLNI) [6]): 100%
- pest or weed control at 125 g/ha (SINAR Sinapis arvensis; 125 g/ha): 60%
- pest or weed control at 125 g/ha ([7]; 125 g/ha): 70%
- pest or weed control at 125 g/ha (SIDSP Sida spinosa; 125 g/ha): 80%
- pest or weed control at 125 g/ha (IPOHE Ipomoea hederacea; 125 g/ha): 80%
- pest or weed control at 125 g/ha ([8]; 125 g/ha): 80%
- pest or weed control at 125 g/ha (CHEAL Chenopodium album; 125 g/ha): 90%
- pest or weed control at 125 g/ha ([9]; 125 g/ha): 100%
- pest or weed control at 125 g/ha ([10]; 125 g/ha): 100%
- pest or weed control at 125 g/ha (GALAP Galium aparine; 125 g/ha): 70%
- pest or weed control at 125 g/ha (VERPE Veronica persica; 125 g/ha): 70%
- pest or weed control at 125 g/ha (KCHSC Kochia scoparia; 125 g/ha): 60%
- pest or weed control at 125 g/ha ([11]; 125 g/ha): 90%
- plant injury at 125 g/ha (GLXMA Soybean; 125 g/ha): 10%
- pest or weed control at 1000 g/ha [12]: 80%
- pest or weed control at 1000 g/ha [13]: 80%
- pest or weed control at 1000 g/ha [14]: 80%
- pest or weed control at 1000 g/ha [15]: 100%
- pest or weed control at 1000 g/ha (Setaria faberi (SETFA) [16]): 90%
- pest or weed control at 1000 g/ha (Solanum nigrum (SOLNI) [17]): 90%

Compound: C=Cc1c(N)nc(-c2ccc(Cl)c(N(C)C)c2F)nc1C(=O)OC [Compound 1]
- melting point: 136 to 137 °C
- pest or weed control at 1000 g/ha [1]: 80%
- pest or weed control at 1000 g/ha [2]: 90%
- pest or weed control at 1000 g/ha [4]: 100%
- pest or weed control at 1000 g/ha (Setaria faberi (SETFA) [5]): 90%
- pest or weed control at 1000 g/ha (Solanum nigrum (SOLNI) [6]): 100%
- pest or weed control at 30 g/ha (SINAR Sinapis arvensis; 30 g/ha): 10%
- pest or weed control at 30 g/ha ([7]; 30 g/ha): 90%
- pest or weed control at 30 g/ha (SIDSP Sida spinosa; 30 g/ha): 60%
- pest or weed control at 30 g/ha (IPOHE Ipomoea hederacea; 30 g/ha): 40%
- pest or weed control at 30 g/ha ([8]; 30 g/ha): 90%
- pest or weed control at 30 g/ha (CHEAL Chenopodium album; 30 g/ha): 90%
- pest or weed control at 30 g/ha ([9]; 30 g/ha): 100%
- pest or weed control at 30 g/ha ([10]; 30 g/ha): 100%
- pest or weed control at 30 g/ha (GALAP Galium aparine; 30 g/ha): 20%
- pest or weed control at 30 g/ha (VERPE Veronica persica; 30 g/ha): 80%
- pest or weed control at 30 g/ha (KCHSC Kochia scoparia; 30 g/ha): 80%
- pest or weed control at 30 g/ha ([11]; 30 g/ha): 90%
- plant injury at 30 g/ha (GLXMA Soybean; 30 g/ha): 0%
- pest or weed control at 1000 g/ha [12]: 90%
- pest or weed control at 1000 g/ha [13]: 100%
- pest or weed control at 1000 g/ha [14]: 90%
- pest or weed control at 1000 g/ha [15]: 100%
- pest or weed control at 1000 g/ha (Setaria faberi (SETFA) [16]): 100%
- pest or weed control at 1000 g/ha (Solanum nigrum (SOLNI) [17]): 100%

— US20120115724A1, “METHOD OF CONTROLLING UNDESIRED VEGETATION” (SYNGENTA CROP PROTECTION LLC, priority 2009, published 2012)
